Assay results: the METLIN SMRT retention time set (Domingo-Almenara et al. 2019)

Test: gradient 5% acetonitrile 3 min, to 50% in 2 min, to 85% in 15 min, held 3 min, 100 µL/min
Conditions: column: Zorbax Extend-C18 2.1 x 50 mm; eluents: water / acetonitrile, 0.1% formic acid
Procedure, shortened: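 Retention time was recorded from adduct peaks, which were picked computationally and each inspected manually. Pure standards ran in mixtures of ~100 molecules on HPLC coupled to a quadrupole time-of-flight mass spectrometer, in positive and negative ionization mode, through a Zorbax Extend-C18 column (2.1 × 50 mm, 1.8 μm) at 100 μL/min. Eluents were water and acetonitrile, each with 0.1% formic acid.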

| RP-LC retention time | Compound |
| --- | --- |
| 940 s | CCOc1cccc(CNS(=O)(=O)c2cc3c(s2)CCN(C(=O)C2CCC2)C3)c1 |
| 1230 s | CCOC(=O)CC1(NC(=O)N2CCN(c3nc4ccccc4nc3C(F)(F)F)CC2)CCCCC1 |
| 798 s | O=C(Nc1ccc(F)cc1)C1(c2cccs2)CCOCC1 |
| 713 s | Cc1ccc(CNC(=O)N(C)CC2CCOCC2)cc1 |
| 811 s | COc1ccccc1NC(=O)Cn1ccc2ccc(-c3nnc(C)o3)cc21 |
| 702 s | CCn1cnc(S(=O)(=O)N2CCCC(C(=O)NCCc3ccccc3)C2)c1 (centres undefined) |
| 677 s | CCc1cccc(Nc2c(C(=O)N3CCCCC3C)cnc3nc(C)ccc23)c1 (centres undefined) |
| 893 s | CCc1ccc(C2=C(C)C(N3CCCN(C(=O)c4cccs4)CC3)=NS2(=O)=O)cc1 |
| 1030 s | Cc1nc(-c2csc(S(=O)(=O)N3CCCC(C(=O)Nc4ccc(C)c(F)c4)C3)c2)no1 (centres undefined) |
| 777 s | CC(C)OCCCNC(=O)c1ccc2c(=O)n(-c3ccccc3)c(N3CCCC3)nc2c1 |
| 923 s | Cc1ccc(S(=O)(=O)N2C[C@@H](F)C[C@H]2C(=O)N2CCc3ccccc3C2)cc1 |
| 902 s | COc1ccccc1C1CC(c2ccccc2NS(C)(=O)=O)=NN1C(=O)c1ccco1 (centres undefined) |
| 1290 s | CC1CCN(S(=O)(=O)c2ccc(C(=O)Nc3nc4c(s3)CCc3ccccc3-4)cc2)CC1 |
| 630 s | CCN(CC)CCNC(=O)c1cc2n(n1)CCCN(Cc1cccc(C)c1)C2=O |
| 600 s | Cc1cc(C)c2c(N3CCSCC3)nc(C(=O)NCCN3CCCC3)nc2n1 |
| 560 s | Cn1c(=O)c(N2CCN(C(=O)c3ccc(Cl)cc3)CC2)nc2ccncc21 |
| 687 s | Cc1ccc(S(=O)(=O)N2CCCC(C(=O)NCc3c(C)nc4sc(C)nn34)C2)cc1 (centres undefined) |
| 827 s | O=C(NCc1ccc(F)cc1Cl)C1CCCN(c2nn3c(=O)c4c(nc3s2)CCCC4)C1 (centres undefined) |
| 606 s | NC(=O)C1CCN(C(=O)c2cncc(NS(=O)(=O)c3ccc(F)cc3)c2)CC1 |
| 1170 s | COC(=O)c1ccccc1NC(=O)CSc1cc(N2CCN(c3ccccc3F)CC2)ncn1 |
| 962 s | Fc1cccc(-c2noc(-c3cc(N4CCN(c5ccccn5)CC4)nc4ccccc34)n2)c1 |
| 700 s | c1cc(CN2CC(Oc3ccc(-c4noc(C5CC5)n4)cc3)C2)cs1 |
| 1160 s | CCc1cccc(C)c1NC(=O)Cn1nc(N2CCC(C)CC2)c2ccccc2c1=O |
| 594 s | O=C(NCCc1ccccn1)C1CCN(c2cnn(Cc3ccccc3)c(=O)c2)CC1 |

| RP-LC retention time | Compound |
| --- | --- |
| 886 s | CCOCCCNC(=O)C1CCCN(c2ncc(-c3ccc(F)cc3)cn2)C1 (centres undefined) |
| 851 s | O=C(Nc1ccccc1Cl)C1CCCN(c2ncnc3c2nc2n3CCCCC2)C1 (centres undefined) |
| 834 s | CCN(CC)c1ccc(Nc2nc(-c3ccc(F)c(C)c3)cs2)cc1 |
| 753 s | COc1ccc(N2CCN(C(=O)Cn3ccc4ccc(-c5nnc(C)o5)cc43)CC2)cc1 |
| 852 s | Cc1cc(CNC(=O)c2cc3ccccc3o2)c(C)o1 |
| 727 s | CCn1c(=O)c(N2CCN(C(=O)NCCCOC)CC2)nc2ccccc21 |
| 678 s | O=C1CCCc2c1cc(C(=O)NCc1ccccn1)c(=O)n2-c1ccc(C(F)(F)F)cc1 |
| 709 s | CC(C)(C)OC(=O)Cn1cnc2c(-c3ccc(F)cc3)csc2c1=O |
| 777 s | O=C(NC1CCN(c2cc(-c3ccc(Cl)cc3)[nH]n2)C1)c1ccccc1F (centres undefined) |
| 788 s | Cc1cccc(Cc2c(C)nc3c(C(=O)O)cnn3c2C)c1 |
| 814 s | COc1ccc(N2CCN(c3cc(SCC(=O)Nc4cc(OC)cc(OC)c4)ncn3)CC2)cc1 |
| 816 s | COCc1cc(=O)n(CCc2ccccc2)c(N2CCCC2)n1 |
| 725 s | CCOc1ccc(NC(=O)C2CCN(C(=O)C3Sc4ccccc4NC3=O)CC2)cc1 (centres undefined) |
| 606 s | CN(C)CCNC(=O)CN1C(=O)CN(C(=O)NCc2ccccc2)c2ccccc21 |
| 593 s | CC(C)(C)NC(=O)NCC(c1ccsc1)N1CCc2ccccc2C1 (centres undefined) |
| 739 s | CCc1ccc(C2=C(C)C(N3CCC(NC(=O)NCCCOC)CC3)=NS2(=O)=O)cc1 |
| 623 s | Cc1ccc(CN2CCN(C(=O)C3CCc4nc(N5CCOCC5)ncc4C3)CC2)cc1C (centres undefined) |
| 665 s | Cc1cc(Cl)ccc1OCC(=O)N1CCn2c(nnc2C(C)C)C1 |
| 1120 s | CCCN1C(=O)c2cc(S(=O)(=O)Nc3ccc(C)c(F)c3)ccc2Oc2cccnc21 |
| 690 s | Cc1cc(N2CCN(C)CC2)nc2ccc(NC(=O)C(C)Oc3ccc(Cl)cc3Cl)cc12 (centres undefined) |
| 767 s | COCCNC(=O)c1csc(N2CCN(c3ccc(OC)cc3)CC2)n1 |
| 1030 s | CCn1c(=O)c(N2CCCC(C(=O)NCCc3c[nH]c4ccc(C)cc34)C2)nc2ccccc21 (centres undefined) |
| 1070 s | CCN1CCn2cc(S(=O)(=O)Nc3ccccc3F)cc2C1=O |

More lines, now with the values behind:

| Compound | RP-LC retention time |
| --- | --- |
| CCCN(C)c1nccn2c(=O)n(CC(=O)Nc3cccc(Cl)c3)nc12 | 724 s |
| CC(C)(C)NCC(O)COc1nsnc1N1CCOCC1 (centres undefined) | 626 s |
| CCCOC(=O)c1[nH]c2c(c1C)C(=O)CC(c1cc(OC)c(OC)c(OC)c1)C2 (centres undefined) | 610 s |
| CCOC(=O)c1c(C)c(CCC(=O)NCCN2CCCCCC2)n(C)c1C | 645 s |
| COc1ccc(C(=O)NCCC(O)C(C)(C)C)cc1 (centres undefined) | 688 s |
| COc1ccc(-n2nnc(-c3nc(-c4cc(OC)ccc4OC)cs3)c2C)cc1 | 1140 s |
| O=C(NCCCc1ccccc1)c1nc(Cn2c(=O)oc3ccccc32)no1 | 952 s |
| CSc1nc(=O)[nH]nc1Sc1ccccc1 | 800 s |
| Cc1ccc2ncn(C3CCN(S(=O)(=O)c4cc(F)cc(F)c4)CC3)c(=O)c2c1 | 932 s |
| CC1CN(c2ccc(Br)cc2)c2nc3c(c(=O)n(CCCO)c(=O)n3C)n2C1 (centres undefined) | 833 s |
| Cc1ccc(Cl)cc1NCc1nnc2n1CCCCC2 | 739 s |
| CC1CCN(S(=O)(=O)c2ccccc2-c2nc(-c3ccccc3)no2)CC1 | 1200 s |
| CCOc1ccc(C2Cn3nnc(-c4nc(-c5cccc(F)c5)no4)c3CO2)cc1 (centres undefined) | 1220 s |
| CC(C)Cn1cc(S(=O)(=O)NCc2cccc(C(F)(F)F)c2)c2cccnc21 | 1070 s |
| Cc1cc(-c2cc(S(=O)(=O)NCC(C)c3ccccc3)c(C)s2)n[nH]1 (centres undefined) | 890 s |
| COC(=O)c1c(C)[nH]c(C(=O)N2CCC(CC(=O)N3CCOCC3)CC2)c1C | 636 s |
| CCOc1ccc(C2Cn3nnc(-c4nc(-c5ccccc5)no4)c3CO2)cc1 (centres undefined) | 1200 s |
| COc1cccc(OC)c1CN1CC[C@@H]2CN(S(C)(=O)=O)[C@@H]2C1 | 594 s |
| COc1ccccc1-c1csc(NC(=O)c2sc(-c3ccccc3)nc2C)n1 | 1250 s |
| COc1ccc2c(Oc3ccc(NC(=O)c4c(C)n(CC(C)(C)O)n(-c5ccccc5)c4=O)nc3)ccnc2c1 | 707 s |
| CC(C)CN1C(=O)c2cccn2CC1CNC(=O)c1cccn1C (centres undefined) | 733 s |

| Compound | RP-LC retention time |
| --- | --- |
| O=C1CC(C(F)(F)F)c2c(c(C(=O)O)cn2-c2ccc(Cl)cc2)N1 (centres undefined) | 786 s |
| CC(C)Cc1cc(-c2nnc3sc(-c4cccc(N(C)C)c4)nn23)n[nH]1 | 1020 s |
| O=c1c2cnc3nc(-c4ccccc4)nn3c2ccn1CCc1c[nH]c2ccccc12 | 925 s |
| Cn1c(=O)c(=O)n(C)c2cc(N3CCOCC3)c(NC(=O)C3CC3)cc21 | 623 s |
| CNC(=O)N1CC(c2nc(-c3ccccc3)no2)C2(CCOCC2)C1 (centres undefined) | 679 s |
| C=C(CN(C)C)C(=O)c1ccccc1Cl | 594 s |
| Cc1nn(CCC(=O)Nc2ccc(F)cc2F)c(=O)c2nn(-c3ccccc3)c(C)c12 | 795 s |
| COc1ccccc1NS(=O)(=O)c1cn(C(C)C)c2ncccc12 | 886 s |
| Cc1ccc(CN2CC(COc3cccnc3)C3(CCOCC3)C2)c(C)c1 (centres undefined) | 591 s |
| Cc1cc(C(=O)N(CC2CCCO2)c2nc3c(F)cc(F)cc3s2)on1 (centres undefined) | 1080 s |
| Cc1cccn2c(=O)nc(SCC(=O)NCc3ccco3)nc12 | 610 s |
| COc1ccc(NC(=O)C2CCc3nc(N4CCOCC4)ncc3C2)c(C)c1 (centres undefined) | 702 s |
| c1ccc(CNc2c(-c3ccc4c(c3)OCCO4)nc3ncccn23)cc1 | 710 s |
| CCN1C(=O)c2cccnc2Sc2cc(NC(=O)c3cc(C)cc(C)c3)ccc21 | 918 s |
| O=C(Nc1cccc(Br)c1)NC1CCN(c2ccc(F)cc2)C1=O (centres undefined) | 818 s |
| CN(C)C(CNC(=O)c1ccccc1C(F)(F)F)c1cn(C)c2ccccc12 (centres undefined) | 602 s |
| Cc1ccc(OCc2nn3c(-c4ccoc4C)nnc3s2)cc1C | 1090 s |
| Cc1ccc(NC(=O)N2CC(c3nc(C(C)C)nn3C)C2)cc1F | 706 s |
| Cc1oc(-c2cccc(Cl)c2)nc1Cn1c(=O)n(C(C)C)c(=O)c2ccccc21 | 1360 s |
| COc1cc(Cl)ccc1-c1nc(-c2cccc(-c3ccn[nH]3)c2)no1 | 1060 s |
| O=C1CC(c2ccc3c(c2)OCO3)c2c(c(C(=O)O)cn2-c2cccc(F)c2)N1 (centres undefined) | 777 s |
